In paper PMC6225228, “Design, Synthesis and Evaluation of N-pyrazinylbenzamides as Potential Antimycobacterial Agents” (Molecules : A Journal of Synthetic Chemistry and Natural …, 2018):
≈ marks a conversion by molar mass, not a printed value. Like-named read-outs stand apart in the source and are kept apart here. Marks after values point to notes of the source that are not given here.

What was measured:
[1] = tested on: Candida glabrata 20/I; assay: Antifungal microdilution broth, CG; assay type: cell-based; conditions: Nakaseomyces glabratus, 20/I, read-out: MIC CG
[2] = tested on: Staphylococcus aureus CCM 4516/08; assay: Antibacterial microdilution broth, SA; assay type: cell-based
[3] = tested on: Trichophyton interdigitale 445; assay: Antifungal microdilution broth, TI; assay type: cell-based; conditions: read-out: MIC TI
[4] = tested on: Staphylococcus epidermidis H 6966/08; assay: Antibacterial microdilution broth, SE; assay type: cell-based; conditions: Staphylococcus epidermidis, read-out: MIC SE
[5] = tested on: Aspergillus fumigatus 231; assay: Antifungal microdilution broth, AF; assay type: cell-based; conditions: read-out: MIC AF
[6] = tested on: Mycobacterium smegmatis CCM 4622 (ATCC 607); assay: Antimycobacterial microdilution, M. smegmatis; assay type: cell-based; conditions: Mycolicibacterium smegmatis, read-out: M. smeg. ATCC 607 MIC
[7] = tested on: Lichtheimia corymbifera 272; assay: Antifungal microdilution broth, LC; assay type: cell-based; conditions: read-out: MIC LC
[8] = tested on: Enterococcus sp. J 14365/08; assay: Antibacterial microdilution broth, EF; assay type: cell-based; conditions: Enterococcus, read-out: MIC EF
[9] = human, HepG2 cells
[10] = tested on: M. avium ssp. avium CNCTC My 80/72 (ATCC 15769); assay: Antimycobacterial microdilution MABA, M. avium; assay type: cell-based, Mycobacterium avium; conditions: for MIC: Mycobacterium avium
[11] = tested on: Candida albicans ATCC 44859; assay: Antifungal microdilution broth, CA; assay type: cell-based; conditions: Candida albicans, read-out: MIC CA
[12] = tested on: Escherichia coli CCM 4517; assay: Antibacterial microdilution broth, EC; assay type: cell-based; conditions: Escherichia coli, read-out: MIC EC
[13] = tested on: Candida krusei E28; assay: Antifungal microdilution broth, CK; assay type: cell-based; conditions: Pichia kudriavzevii, read-out: MIC CK
[14] = tested on: Candida tropicalis 156; assay: Antifungal microdilution broth, CT; assay type: cell-based; conditions: read-out: MIC CT
[15] = tested on: Staphylococcus aureus H 5996/08 methicillin resistant; assay: microbe, parasite or virus in culture; assay type: cell-based; conditions: Staphylococcus aureus, MRSA, read-out: MIC MRSA
[16] = tested on: Mycobacterium tuberculosis H37Rv CNCTC My 331/88 (ATCC 27294); assay: Antimycobacterial microdilution MABA, M. tuberculosis; assay type: cell-based; conditions: for MIC: Mycobacterium tuberculosis
[17] = tested on: Pseudomonas aeruginosa CCM 1961; assay: Antibacterial microdilution broth, PA; assay type: cell-based; conditions: Pseudomonas aeruginosa, read-out: MIC PA
[18] = tested on: Trichosporon asahii 1188; assay: Antifungal microdilution broth, TA; assay type: cell-based; conditions: read-out: MIC TA
[19] = tested on: M. kansasii CNCTC My 235/80 (ATCC 12478); assay: Antimycobacterial microdilution MABA, M. kansasii; assay type: cell-based, Mycobacterium kansasii; conditions: for MIC: Mycobacterium kansasii
[20] = tested on: Mycobacterium tuberculosis H37Rv (Mtb); conditions: cited from earlier work
[21] = tested on: Mycobacterium tuberculosis H37Rv (Mtb); conditions: cited from earlier work; remark: listed apart in the source
[22] = Middlebrook 7H9 with OADC, pH 6.6, MABA
[23] = Middlebrook 7H9, pH = 6.6, MABA

## Cc1ccc(C(=O)Nc2cnc(Cl)cn2)cc1 [Compound 2h]
[1]; 24 h
  MIC: > 125 µM
[1]; 48 h
  MIC: > 125 µM
[2]; 24 h, read-out: MIC SA
  MIC: >125 µM
[2]; Staphylococcus aureus, CCM4516, 24 h, read-out: MIC SA, 24 h
  MIC: > 125 µM
[2]; Staphylococcus aureus, CCM4516, 48 h, read-out: MIC SA, 48 h
  MIC: > 125 µM
[3]; Trichophyton interdigitale, 445, 72 h
  MIC: > 125 µM
[3]; Trichophyton interdigitale, 445, 120 h
  MIC: > 125 µM
[4]; H6966/08, 24 h
  MIC: > 125 µM
[4]; H6966/08, 48 h
  MIC: > 125 µM
[5]; Aspergillus fumigatus, 231, 24 h
  MIC: > 125 µM
[5]; Aspergillus fumigatus, 231, 48 h
  MIC: > 125 µM
[6]
  MIC: ≥ 500 µg/mL
[7]; Lichtheimia corymbifera, 272, 24 h
  MIC: > 125 µM
[7]; Lichtheimia corymbifera, 272, 48 h
  MIC: > 125 µM
[8]; SP.J14365/08, 24 h
  MIC: > 125 µM
[8]; SP.J14365/08, 48 h
  MIC: > 125 µM
[9]
  IC50 at 24 h: > 250 µM
[10]; [22]
  M. avium ATCC 15769 MIC: >100 µg/mL
[10]; ATCC15769, pH 6.6, read-out: M. avium ATCC 15769 MIC
  MIC: > 100 µg/mL
[11]; ATCC44859, 24 h
  MIC: > 125 µM
[11]; ATCC44859, 48 h
  MIC: > 125 µM
[12]; CCM4517, 24 h
  MIC: > 125 µM
[12]; CCM4517, 48 h
  MIC: > 125 µM
[13]; E28, 24 h
  MIC: > 125 µM
[13]; E28, 48 h
  MIC: > 125 µM
[14]; Candida tropicalis, 156, 24 h
  MIC: > 125 µM
[14]; Candida tropicalis, 156, 48 h
  MIC: > 125 µM
[15]; 24 h
  MIC: > 125 µM
[15]; 48 h
  MIC: > 125 µM
[16]; Middlebrook 7H9 with OADC growth supplement, pH = 6.6, MABA
  Mtb H37Rv ATCC 27294 MIC: 6.25 µg/mL
[16]; read-out: Mtb H37Rv ATCC 27294 MIC, Middlebrook 7H9 with OADC growth supplement, pH = 6.6, MABA
  MIC: 3.13 to 6.25 µg/mL
[16]; read-out: Mtb MIC, molar concentration
  MIC: 25.2 µM
[17]; CCM1961, 72 h
  MIC: > 125 µM
[17]; CCM1961, 120 h
  MIC: > 125 µM
[18]; Trichosporon asahii, 1188, 24 h
  MIC: > 125 µM
[18]; Trichosporon asahii, 1188, 48 h
  MIC: > 125 µM
[19]; [22]
  M. kans. ATCC 12478 MIC: >100 µg/mL
[19]; ATCC12478, pH 6.6, read-out: M. kans. ATCC 12478 MIC, Middlebrook 7H9 with OADC, pH 6.6, MABA
  MIC: > 100 µg/mL
other
  melting point: 186.4 to 187.1 °C

## COc1cccc(NC(=O)c2cncc(Cl)n2)c1 [Amide R1=6-Cl R2=3-OCH3]
[20]
  Amides Inhibition (%) at 6.25 μg/mL (TAACF): 2 [31] %

## COc1ccc(NC(=O)c2cnccn2)cc1 [Amide R1=H R2=4-OCH3]
[21]; [23]
  Amides MIC: >100 ^b [27] μg/mL

## O=C(Nc1ccc(Cl)cc1)c1cnccn1 [Amide R1=H R2=4-Cl]
[20]
  Amides Inhibition (%) at 6.25 μg/mL (TAACF): 4 [33] %
[21]; [23]
  Amides MIC: 50 ^b [27] μg/mL

## Cc1ccc(NC(=O)c2cncc(Cl)n2)cc1 [Amide R1=6-Cl R2=4-CH3]
[20]
  Amides Inhibition (%) at 6.25 μg/mL (TAACF): 71 [32] %

## O=C(Nc1ccc(Cl)cc1)c1cncc(Cl)n1 [Amide R1=6-Cl R2=4-Cl]
[20]
  Amides Inhibition (%) at 6.25 μg/mL (TAACF): 65 [33] %

## O=C(Nc1cncc(Cl)n1)c1cccc(C(F)(F)F)c1 [Compound 3n, N-(6-chloropyrazin-2-yl)-3-(trifluoromethyl)benzamide]
[6]; Middlebrook 7H9 with OADC, resazurin
  MIC: 125 µg/mL (≈ 414 µM)
[9]
  IC50 at 24 h: > 250 µM
[10]; ATCC15769, Middlebrook 7H9 with OADC, pH 6.6, MABA, read-out: M. avium ATCC 15769 MIC
  MIC: 50 µg/mL (≈ 166 µM)
[16]; Middlebrook 7H9 with OADC growth supplement, pH = 6.6, MABA, read-out: Mtb H37Rv ATCC 27294 MIC
  MIC: 25 µg/mL
[16]; molar concentration, read-out: Mtb MIC
  MIC: 82.9 µM
[19]; ATCC12478, Middlebrook 7H9 with OADC, pH 6.6, MABA, read-out: M. kans. ATCC 12478 MIC
  MIC: 25 µg/mL (≈ 82.9 µM)
other
  melting point: 124.2 to 125 °C

## O=C(Nc1cccc(Cl)c1)c1cnccn1 [Amide R1=H R2=3-Cl]
[20]
  Amides Inhibition (%) at 6.25 μg/mL (TAACF): 14 [33] %
[21]; [23]
  Amides MIC: >100 ^b [27] μg/mL

## O=C(Nc1cccc(Cl)c1)c1cnc(Cl)cn1 [Amide R1=5-Cl R2=3-Cl]
[21]; Šula's semisynthetic medium, pH = 5.6, turbidity, first value
  Amides MIC: 6.25 µg/mL
[21]; Šula's semisynthetic medium, pH = 5.6, turbidity, second value in parentheses
  Amides MIC (value in parentheses): 3.13 µg/mL

## O=C(Nc1ccccc1)c1cncc(Cl)n1 [Amide R1=6-Cl R2=H]
[20]
  Amides Inhibition (%) at 6.25 μg/mL (TAACF): 32 [31] %
[21]; Šula's semisynthetic medium, pH = 5.6, MABA
  Amides MIC: 25 ^d [34] μg/mL

## O=C(Nc1cccc(C(F)(F)F)c1)c1cnccn1 [Amide R1=H R2=3-CF3]
[20]
  Amides Inhibition (%) at 6.25 μg/mL (TAACF): 99 [32] %
[21]; [23]
  Amides MIC: 50 µg/mL
[21]; conditions not footnoted
  Amides MIC: 6.25 µg/mL

## COc1ccccc1NC(=O)c1cncc(Cl)n1 [Amide R1=6-Cl R2=2-OCH3]
[20]
  Amides Inhibition (%) at 6.25 μg/mL (TAACF): 6 [35] %
